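Cultured in 96-well plates, cells were exposed to test compound for 48 hours across five concentrations. TGI: concentration producing complete growth inhibition.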
Experiments:
Experiment in all cases: inhibition of tumour cell growth, NCI panel, 48 h
SF-268 CNS = tested on: SF-268 CNS
RPMI-8226 leukemia = tested on: RPMI-8226 leukemia
HOP-62 NSCLC = tested on: HOP-62 NSCLC
IGROV1 ovarian = tested on: IGROV1 ovarian
T-47D breast = tested on: T-47D breast
BT-549 breast = tested on: BT-549 breast
MDA-MB-435 = tested on: MDA-MB-435
LOX IMVI melanoma = tested on: LOX IMVI melanoma
ACHN renal = tested on: ACHN renal
PC-3 prostate = tested on: PC-3 prostate
OVCAR-3 ovarian = tested on: OVCAR-3 ovarian
SF-539 CNS = tested on: SF-539 CNS
MDA-N = tested on: MDA-N
HS 578T breast = tested on: HS 578T breast
NCI/ADR-RES ovarian = tested on: NCI/ADR-RES ovarian
UACC-257 melanoma = tested on: UACC-257 melanoma
SK-OV-3 ovarian = tested on: SK-OV-3 ovarian
HOP-92 NSCLC = tested on: HOP-92 NSCLC
OVCAR-4 ovarian = tested on: OVCAR-4 ovarian
UACC-62 melanoma = tested on: UACC-62 melanoma
UO-31 renal = tested on: UO-31 renal
SR leukemia = tested on: SR leukemia
SW-620 colon = tested on: SW-620 colon
MDA-MB-231 breast = tested on: MDA-MB-231 breast
M14 melanoma = tested on: M14 melanoma
KM12 colon = tested on: KM12 colon
MCF7 breast = tested on: MCF7 breast
HCC-2998 colon = tested on: HCC-2998 colon
SK-MEL-28 melanoma = tested on: SK-MEL-28 melanoma
NCI-H23 lung = tested on: NCI-H23 lung
OVCAR-8 ovarian = tested on: OVCAR-8 ovarian
NCI-H460 lung = tested on: NCI-H460 lung
SK-MEL-2 melanoma = tested on: SK-MEL-2 melanoma
MOLT-4 leukemia = tested on: MOLT-4 leukemia
786-0 renal = tested on: 786-0 renal
CAKI-1 renal = tested on: CAKI-1 renal
SK-MEL-5 melanoma = tested on: SK-MEL-5 melanoma
DU-145 prostate = tested on: DU-145 prostate
HCT-15 colon = tested on: HCT-15 colon
COLO 205 colon = tested on: COLO 205 colon
CCRF-CEM leukemia = tested on: CCRF-CEM leukemia
RXF 393 renal = tested on: RXF 393 renal
OVCAR-5 ovarian = tested on: OVCAR-5 ovarian
SN12C renal = tested on: SN12C renal
HL-60(TB) leukemia = tested on: HL-60(TB) leukemia
MALME-3M melanoma = tested on: MALME-3M melanoma
SNB-19 CNS = tested on: SNB-19 CNS
A498 renal = tested on: A498 renal
NCI-H226 lung = tested on: NCI-H226 lung
SF-295 CNS = tested on: SF-295 CNS
SNB-75 CNS = tested on: SNB-75 CNS
K-562 leukemia = tested on: K-562 leukemia
NCI-H522 lung = tested on: NCI-H522 lung
HT29 colon = tested on: HT29 colon
TK-10 renal = tested on: TK-10 renal
U251 CNS = tested on: U251 CNS
HCT-116 colon = tested on: HCT-116 colon
EKVX NSCLC = tested on: EKVX NSCLC
A549 NSCLC = tested on: A549 NSCLC

CCOC(=O)[C@@H]1[C@@H]2NC(=O)N[C@@]1(C)Oc1ccccc12
TGI (SF-268 CNS): > 100 µM
TGI (RPMI-8226 leukemia): > 100 µM
TGI (HOP-62 NSCLC): > 100 µM
TGI (IGROV1 ovarian): > 100 µM
TGI (T-47D breast): > 100 µM
TGI (BT-549 breast): > 100 µM
TGI (MDA-MB-435): > 100 µM
TGI (LOX IMVI melanoma): > 100 µM
TGI (ACHN renal): > 100 µM
TGI (PC-3 prostate): > 100 µM
TGI (OVCAR-3 ovarian): > 100 µM
TGI (SF-539 CNS): > 100 µM
TGI (MDA-N): > 100 µM
TGI (HS 578T breast): > 100 µM
TGI (NCI/ADR-RES ovarian): > 100 µM
TGI (UACC-257 melanoma): > 100 µM
TGI (SK-OV-3 ovarian): > 100 µM
TGI (HOP-92 NSCLC): > 100 µM
TGI (OVCAR-4 ovarian): > 100 µM
TGI (UACC-62 melanoma): > 100 µM
TGI (UO-31 renal): > 100 µM
TGI (SR leukemia): > 100 µM
TGI (SW-620 colon): > 100 µM
TGI (MDA-MB-231 breast): > 100 µM
TGI (M14 melanoma): > 100 µM
TGI (KM12 colon): > 100 µM
TGI (MCF7 breast): > 100 µM
TGI (HCC-2998 colon): > 100 µM
TGI (SK-MEL-28 melanoma): > 100 µM
TGI (NCI-H23 lung): > 100 µM
TGI (OVCAR-8 ovarian): > 100 µM
TGI (NCI-H460 lung): > 100 µM
TGI (SK-MEL-2 melanoma): > 100 µM
TGI (MOLT-4 leukemia): > 100 µM
TGI (786-0 renal): > 100 µM
TGI (CAKI-1 renal): > 100 µM
TGI (SK-MEL-5 melanoma): > 100 µM
TGI (DU-145 prostate): > 100 µM
TGI (HCT-15 colon): > 100 µM
TGI (COLO 205 colon): > 100 µM
TGI (CCRF-CEM leukemia): > 100 µM
TGI (RXF 393 renal): > 100 µM
TGI (OVCAR-5 ovarian): > 100 µM
TGI (SN12C renal): > 100 µM
TGI (HL-60(TB) leukemia): > 100 µM
TGI (MALME-3M melanoma): > 100 µM
TGI (SNB-19 CNS): > 100 µM
TGI (A498 renal): > 100 µM
TGI (NCI-H226 lung): > 100 µM
TGI (SF-295 CNS): > 100 µM
TGI (SNB-75 CNS): > 100 µM
TGI (K-562 leukemia): > 100 µM
TGI (NCI-H522 lung): > 100 µM
TGI (HT29 colon): > 100 µM
TGI (TK-10 renal): > 100 µM
TGI (U251 CNS): > 100 µM
TGI (HCT-116 colon): > 100 µM
TGI (EKVX NSCLC): > 100 µM

C=CCc1cccc2cc(C(=O)NC3CCCCC3)c(=N)oc12
TGI (SF-268 CNS): 41.2 µM
TGI (RPMI-8226 leukemia): > 100 µM
TGI (HOP-62 NSCLC): 37.7 µM
TGI (IGROV1 ovarian): > 100 µM
TGI (T-47D breast): 52.8 µM
TGI (BT-549 breast): > 100 µM
TGI (MDA-MB-435): 77.5 µM
TGI (LOX IMVI melanoma): 34 µM
TGI (ACHN renal): 35 µM
TGI (PC-3 prostate): 31.2 µM
TGI (OVCAR-3 ovarian): 28.3 µM
TGI (MDA-N): 47.3 µM
TGI (HS 578T breast): 31.4 µM
TGI (NCI/ADR-RES ovarian): > 100 µM
TGI (UACC-257 melanoma): 78 µM
TGI (SK-OV-3 ovarian): > 100 µM
TGI (HOP-92 NSCLC): > 100 µM
TGI (OVCAR-4 ovarian): 63.1 µM
TGI (UACC-62 melanoma): 41.2 µM
TGI (SR leukemia): > 100 µM
TGI (SW-620 colon): > 100 µM
TGI (MDA-MB-231 breast): 35.9 µM
TGI (M14 melanoma): 39.1 µM
TGI (KM12 colon): 33 µM
TGI (MCF7 breast): > 100 µM
TGI (HCC-2998 colon): 31.2 µM
TGI (SK-MEL-28 melanoma): 66.2 µM
TGI (NCI-H23 lung): 51.8 µM
TGI (OVCAR-8 ovarian): 57.8 µM
TGI (NCI-H460 lung): 35.9 µM
TGI (SK-MEL-2 melanoma): 16.1 µM
TGI (MOLT-4 leukemia): > 100 µM
TGI (786-0 renal): 31.2 µM
TGI (CAKI-1 renal): 37.9 µM
TGI (SK-MEL-5 melanoma): 27.4 µM
TGI (DU-145 prostate): 52.5 µM
TGI (HCT-15 colon): 34.9 µM
TGI (COLO 205 colon): 33.5 µM
TGI (CCRF-CEM leukemia): > 100 µM
TGI (RXF 393 renal): > 100 µM
TGI (OVCAR-5 ovarian): 39 µM
TGI (SN12C renal): 29.8 µM
TGI (HL-60(TB) leukemia): > 100 µM
TGI (MALME-3M melanoma): > 100 µM
TGI (SNB-19 CNS): 72.8 µM
TGI (A498 renal): 52 µM
TGI (A549 NSCLC): > 100 µM
TGI (NCI-H226 lung): 44.9 µM
TGI (SNB-75 CNS): 35 µM
TGI (K-562 leukemia): > 100 µM
TGI (NCI-H522 lung): > 100 µM
TGI (HT29 colon): 57.7 µM
TGI (U251 CNS): > 100 µM
TGI (HCT-116 colon): 28.6 µM
TGI (EKVX NSCLC): > 100 µM

Source: PubChem BioAssay (NCI)
